Type in all cases: in vivo
One assay has as its system ECHCG. Nature of the assay: Pre-emergence biological efficacy (Table 3). As to conditions: Echinochloa crus-galli, 312 h, 1000 g/ha, after 13 days, read-out: evaluation (100=total damage to plant; 0=no damage to plant). The method in brief: (§1)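 Seeds sown in standard soil and sprayed one day later with compound formulated in acetone/AMA solvent-emulsifier, diluted in 0.2% Genapol X080 to the final dose. Plants grown in glasshouse at 24/18° C, 15 h light, 50% humidity. Damage scored after 13 days (0=none, 100=total).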

The subject of the next assay is AMARE. Nature of the assay: Pre-emergence biological efficacy (Table 3). As to conditions: Amaranthus retroflexus, 312 h, 1000 g/ha, after 13 days, read-out: evaluation (100=total damage to plant; 0=no damage to plant). In short, it runs like this:
as §1

For the next assay, the system named is IPOHE. Briefly: Pre-emergence biological efficacy (Table 3). The settings on record: Ipomoea hederacea, 312 h, 1000 g/ha, after 13 days, read-out: evaluation (100=total damage to plant; 0=no damage to plant). In short, it runs like this:
as §1

The next assay concerns STEME. Nature of the assay: Pre-emergence biological efficacy (Table 3). As to conditions: 312 h, after 13 days, read-out: evaluation (100=total damage to plant; 0=no damage to plant). The method in brief: as §1
The test system of a further assay is ZEAMX. Nature of the assay: Pre-emergence biological efficacy (Table 3). As to conditions: 312 h, 1000 g/ha, after 13 days, read-out: evaluation (100=total damage to plant; 0=no damage to plant). The method in brief:
as §1

For the next assay, the system named is ABUTH. Briefly: Pre-emergence biological efficacy (Table 3). As to conditions: Abutilon theophrasti, 312 h, after 13 days, read-out: evaluation (100=total damage to plant; 0=no damage to plant). The method in brief: as §1
The subject of a further assay is weeds and/or crops. Briefly: Post-emergence biological efficacy (Table 4). As to conditions: 312 h, 1000 g/ha, evaluated after 13 days. In short, it runs like this: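 Scores are visual damage (0 = none, 100 = total), read 13 days after treatment at 24/18 °C with 15 h light. Plants had been sown in standard soil and grown 14 days before a spray of compound in F50/acetone, diluted with 0.2% Genapol X080.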

Where [1] appears, read: STEME, read-out: damage to plant STEME (100=total damage; 0=no damage).
[2] abbreviates: ZEAMX, read-out: damage to plant ZEAMX (100=total damage; 0=no damage).
Where [3] appears, read: Abutilon theophrasti, ABUTH, read-out: damage to plant ABUTH (100=total damage; 0=no damage).
The mark [4] stands for this setting: Amaranthus retroflexus, AMARE, read-out: damage to plant AMARE (100=total damage; 0=no damage).
The mark [5] stands for this setting: Echinochloa crus-galli, ECHCG, read-out: damage to plant ECHCG (100=total damage; 0=no damage).
[6] abbreviates: Ipomoea hederacea, IPOHE, read-out: damage to plant IPOHE (100=total damage; 0=no damage).

Like-named read-outs stand apart in the source and are kept apart here.

Turning to `O=C(O)C(F)(F)c1cccc2c1OC(F)(F)O2` [Compound 1-385, 2-(2,2-Difluoro-1,3-benzodioxol-4-yl)-2,2-difluoro-acetic acid], the pest or weed control at 1000 g/ha with ECHCG was found to be 50%; with AMARE it was 60%; in the assay with IPOHE, 70%; in the assay with STEME, 50%; in the assay on ABUTH it was 90%; in the assay with weeds and/or crops (setting [1]) it was 100%. The pest or weed control at 1000 g/ha is 40% in the assay on weeds and/or crops (setting [2]); 90% in the assay with weeds and/or crops (setting [3]); 90% in the assay with weeds and/or crops (setting [4]); 50% in the assay with weeds and/or crops (setting [5]); 70% in the assay with weeds and/or crops (setting [6]). Besides, the plant injury at 1000 g/ha in the assay on ZEAMX came to 50%.

Take `O=C(O)C(F)(F)c1c(Cl)ccc2c1OC(F)(F)O2` [Compound 1-389, 2-(5-Chloro-2,2-difluorobenzo[d][1,3]dioxol-4-yl)-2,2-difluoroaceticacid]: the pest or weed control at 1000 g/ha amounted to 10% in the assay with ECHCG; 60% with AMARE; 60% with IPOHE; 60% in the assay with STEME; 50% with ABUTH; 50% in the assay on weeds and/or crops (setting [1]). Also, the pest or weed control at 1000 g/ha in the assay on weeds and/or crops (setting [2]) came out at 0%; with weeds and/or crops (setting [4]) it was 80%; with weeds and/or crops (setting [5]) it was 10%; with weeds and/or crops (setting [6]), 70%. Also, the plant injury at 1000 g/ha in the assay on ZEAMX amounted to 10%.

For the molecule `Cc1noc2cccc(C(F)(F)C(=O)O)c12` [Compound 1-391, 2,2-Difluoro-2-(3-methyl-1,2-benzoxazol-4-yl)acetic acid], the pest or weed control at 1000 g/ha turned out to be 40% with ECHCG; 70% in the assay with AMARE; 60% with IPOHE; 20% in the assay with STEME; 40% with ABUTH; 50% in the assay with weeds and/or crops (setting [1]). The pest or weed control at 1000 g/ha with weeds and/or crops (setting [2]) turned out to be 10%; with weeds and/or crops (setting [4]), 70%; in the assay on weeds and/or crops (setting [5]), 30%; in the assay on weeds and/or crops (setting [6]) it was 80%. Besides, the plant injury at 1000 g/ha with ZEAMX was 10%.

On to `Cc1noc2ccc(Cl)c(C(F)(F)C(=O)O)c12` [Compound 1-395, 2-(5-Chloro-3-methyl-1,2-benzoxazol-4-yl)-2,2-difluoro-acetic acid], for which the pest or weed control at 1000 g/ha was 20% in the assay on ECHCG; 30% with AMARE; 50% in the assay on IPOHE; 10% in the assay with STEME; 10% in the assay on ABUTH; 20% with weeds and/or crops (setting [1]). For the same molecule, the pest or weed control at 1000 g/ha with weeds and/or crops (setting [2]) was 0%; in the assay with weeds and/or crops (setting [3]), 20%; with weeds and/or crops (setting [4]), 40%; in the assay with weeds and/or crops (setting [5]), 10%; with weeds and/or crops (setting [6]), 70%. The plant injury at 1000 g/ha with ZEAMX worked out at 0%.

For `Cc1ccc2onc(C)c2c1C(F)(F)C(=O)O` [Compound 1-396, 2-(3,5-dimethylbenzo[d]isoxazol-4-yl)-2,2-difluoroacetic acid], the pest or weed control at 1000 g/ha in the assay on ECHCG, in the assay with AMARE, in the assay on IPOHE, in the assay on STEME, with ABUTH and in the assay with weeds and/or crops (setting [1]) was 0% in each case. In addition, the pest or weed control at 1000 g/ha in the assay with weeds and/or crops (setting [2]) turned out to be 10%; with weeds and/or crops (setting [4]) it was 10%; in the assay on weeds and/or crops (setting [5]), 0%; in the assay on weeds and/or crops (setting [6]), 60%. For the same molecule, the plant injury at 1000 g/ha in the assay on ZEAMX is 30%.

These data come from US20240251792A1, “WEED CONTROL METHOD” (SYNGENTA CROP PROTECTION AG, priority 2021, published 2024).
